{
  "source": "patent US20150367034A1",
  "about": "“CREATION OF THREE-DIMENSIONAL SYNTHETIC TISSUE FROM PLURIPOTENT STEM CELL-DERIVED CELLS, AND OSTEOCHONDRAL REGENERATION TREATMENT USING SAID SYNTHETIC TISSUE” (OSAKA UNIVERSITY, priority 2013, published 2015)",
  "key": {"ES-MSCs": {"tested_on": "ES-MSCs", "test": "Volume, weight and hydroxyproline of TEC from ES-MSCs with or without ascorbic acid 2-phosphate", "type": "cell-based, rabbit", "conditions": "0.2 mM added versus non-added; FIG. 3", "protocol": "The protocol thereof is disclosed below.\nES-MSCs were inoculated at a TEC creation concentration (1.52×10^5 cells/well) in each well of a 12 well plate to create a TEC. A medium was created by separating conventional 10% FBS-containing DMEM for TEC creation into a 0.2 mM ascorbic acid added group (n=6) and non-added group (n=6). Three of each group were used for weight/volume measurements and the rest of the three were used in hydroxyproline measurements. For hydroxyproline, the following kit was used (Hydroxyproline Assay Kit Cat#K555-100; Lot#60855, BioVision), where the measurements were taken in accordance with the protocol on the package insert.\nFor the TEC made from 0.125×10^6, 0.25×10^6, 0.5×10^6, 1×10^6, 2×10^6, 4×10^6, 8×10^6, or 16×10^6 cells/well in a 6 well plate which was cultured over 12 days, detached, and allowed to undergo self-contraction, the volume was measured with a plethysmometer (model TK-101CMP; UNICOM, Chiba, Japan), and the weight was measured with a scale (Ando W, Tateishi K, Katakai D, Hart D A, Higuchi C, Nakata K, et al., Tissue Eng Part A 2008:14:2041-2049). 4 samples were evaluated at each cell density. In short, a plethysmometer is a minute volume controlled measuring device that is specially designed for accurate measurement. A plethysmometer consists of Perspex cells filled with water. A transducer records a small difference in the water level caused by a change in volume. […] The weight was measured with a common scale (METTLER TOLEDO AG204, Mettler-Toledo International Inc., Max210gd=0.1 mg, METTLER TOLEDO AG204 (Mettler-Toledo International Inc.)) in a laboratory […]. Measurements were taken in accordance with the protocol on the package insert."}, "Synovial cells": {"tested_on": "Synovial cells", "test": "Extracellular matrix formation and collagen content (hydroxyproline) of synovial cell synthetic tissue", "type": "cell-based", "conditions": "pig synovial cells", "protocol": "Synovial cells were collected from a knee joint of a pig (LWD ternary hybrid, 2-3 months old upon removal of cells), followed by treatment with collagenase. The cells were cultured and subcultured in a 10% fetal bovine serum+High Glucose-DMEM medium (fetal bovine serum available from HyClone, DMEM was obtained from GIBCO). It has been reported that 10th passage synovial cells still have pluripotency. Although cells of 10 or less passages were used in this production example, it is understood that cells of more than 10 passages may be used depending on the application. Autotransplantation was performed for actual human implantation, but it was necessary to secure a sufficient number of cells and to culture the cells for a short period of time so as to reduce the risk of infection or the like. Synovial cells (4.0×10^5) were cultured in 0.1-0.2 ml/cm^2 of 10% FBS-DMEM medium in a 35-mm dish, 60-mm dish, 100-mm dish, 150-mm dish, 500-m dish, 6-well culture dish, 12-well culture dish, or 24-well culture dish (BD Biosciences, cell culture dish and multiwell cell culture plate). In this case, ascorbic acid was added. […] In order to determine the collagen concentration, the collagen content was measured. […]"}},
  "data": [
    {"compound": "O=C1O[C@H]([C@@H](O)CO)C(O)=C1OP(=O)(O)O", "note": "[ascorbic acid 2-phosphate]", "values": [
      {"measurement": "hydroxyproline generation amount of TEC", "setting": "ES-MSCs", "result": "significantly increased"},
      {"measurement": "volume of TEC", "setting": "ES-MSCs", "result": "significantly increased"},
      {"measurement": "weight of TEC", "setting": "ES-MSCs", "result": "significantly increased"},
      {"measurement": "production of collagen (amount of hydroxyproline)", "setting": "Synovial cells; 0.1 mM or more added", "result": "significantly promoted"},
      {"measurement": "formation of an extracellular matrix", "setting": "Synovial cells; added at a concentration of 0.1 mM or more", "result": "promoted"}
    ]}
  ]
}
